Assay results taken from PubChem BioAssay AID330 (DTP/NCI, 2004).
“And” between values parts separate entries of the source, which are not always exact repeats. Identical values can stand only once. Inconclusive results and toxic doses are left out. Rule for the calls: active = survival T/C of 150% or more; inactive = T/C below 125% in these data.

Tested on: P388 leukemia ip, CD2F1 mice, survival T/C
Test: NCI In Vivo Anticancer Drug Screen. Data for tumor model P388 Leukemia (intraperitoneal) in CD2F1 (CDF1) mice
Conditions: endpoint: median survival time, higher = longer survival
Procedure, shortened: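 Mice carrying the transplanted tumor received test compound or vehicle. Survival was recorded in each group, and the value is the treated-group measurement divided by that of the vehicle-treated control group.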

[1] = dose: 50.0 mg/kg/injection, schedule: Q01DX005 (ip), vehicle: Klucel (hydroxypropylcellulose) (HPC)
[2] = dose: 100.0 mg/kg/injection, schedule: Q01DX005 (ip), vehicle: Klucel (hydroxypropylcellulose) (HPC)
[3] = dose: 200.0 mg/kg/injection, schedule: Q01DX005 (ip), vehicle: Klucel (hydroxypropylcellulose) (HPC)
[4] = dose: 12.5 mg/kg/injection, schedule: Q01DX005 (ip), vehicle: Klucel (hydroxypropylcellulose) (HPC)
[5] = dose: 25.0 mg/kg/injection, schedule: Q01DX005 (ip), vehicle: Klucel (hydroxypropylcellulose) (HPC)
[6] = dose: 100.0 mg/kg/injection, schedule: Q01DX009 (ip), vehicle: saline with Tween-80
[7] = dose: 200.0 mg/kg/injection, schedule: Q01DX009 (ip), vehicle: saline with Tween-80
[8] = dose: 400.0 mg/kg/injection, schedule: Q01DX009 (ip), vehicle: saline with Tween-80
[9] = dose: 25.0 mg/kg/injection, schedule: Q01DX009 (ip), vehicle: saline with Tween-80
[10] = dose: 100.0 mg/kg/injection, schedule: Q01DX009 (ip), vehicle: Klucel (hydroxypropylcellulose) (HPC)
[11] = dose: 200.0 mg/kg/injection, schedule: Q01DX009 (ip), vehicle: Klucel (hydroxypropylcellulose) (HPC)
[12] = dose: 50.0 mg/kg/injection, schedule: Q01DX009 (ip), vehicle: saline with Tween-80

Measured: T/C

COC(=O)C1C2c3ccccc3C(c3ccccc32)C1(C)C(=O)OC (centres undefined)
inactive: [1] 96 % of control | [2] 102 % of control | [3] 102 % of control

Cc1ccsc1S(N)(=O)=O
inactive: [4] 95 % of control | [5] 98 % of control | [1] 106 % of control and 107 % of control | [2] 113 % of control | [3] 113 % of control

CCn1c(C)nc([N+](=O)[O-])c1Sc1ncn[nH]1
inactive: [5] 118 % of control | [1] 115 % of control and 120 % of control | [2] 121 % of control

C=C1C(=O)CCC1C(=O)O (centres undefined)
inactive: dose: 178.0 mg/kg/injection, schedule: Q01DX001 (ip), vehicle: saline 100 % of control | dose: 266.0 mg/kg/injection, schedule: Q01DX001 (ip), vehicle: saline 109 % of control | dose: 400.0 mg/kg/injection, schedule: Q01DX001 (ip), vehicle: saline 114 % of control | dose: 600.0 mg/kg/injection, schedule: Q01DX001 (ip), vehicle: saline 118 % of control | dose: 900.0 mg/kg/injection, schedule: Q01DX001 (ip), vehicle: saline 112 % of control

CCO/C(C)=C(/C(C)=O)C(=O)NC1CCCCC1
inactive: [6] 95 % of control | [7] 90 % of control | [8] 90 % of control

O=C(O)C(F)(F)F
inactive: [6] 90 % of control | [7] 95 % of control | [8] 90 % of control

O=C(NC1=NN(c2ccccc2)C(=O)C1)c1ccccc1
inactive: dose: 9.37 mg/kg/injection, schedule: Q01DX009 (ip), vehicle: saline 101 % of control | dose: 18.75 mg/kg/injection, schedule: Q01DX009 (ip), vehicle: saline 110 % of control | dose: 37.5 mg/kg/injection, schedule: Q01DX009 (ip), vehicle: saline 98 % of control

C=C(C)c1c2ccccc2cc2cccc(Sc3ccc(C(C)(C)C)cc3)c12
inactive: dose: 100.0 mg/kg/injection, schedule: Q04DX002 (ip), vehicle: saline with Tween-80 101 % of control | dose: 200.0 mg/kg/injection, schedule: Q04DX002 (ip), vehicle: saline with Tween-80 96 % of control | dose: 400.0 mg/kg/injection, schedule: Q04DX002 (ip), vehicle: saline with Tween-80 92 % of control

CN(C)c1ccc(/C=C/c2ccnc3ccc(Cl)cc23)cc1
inactive: [9] 118 % of control

CS/C(=C/c1ccc2ccccc2[n+]1C)N1CCN(C)CC1
inactive: dose: 6.25 mg/kg/injection, schedule: Q01DX005 (ip), vehicle: saline 99 % of control | dose: 12.5 mg/kg/injection, schedule: Q01DX005 (ip), vehicle: saline 98 % of control | dose: 25.0 mg/kg/injection, schedule: Q01DX005 (ip), vehicle: saline 102 % of control

COc1ccc(CC2(C(=O)O)NCCS2)cc1OC (centres undefined)
inactive: dose: 100.0 mg/kg/injection, schedule: Q04DX003 (ip), vehicle: Klucel (hydroxypropylcellulose) (HPC) 101 % of control | dose: 200.0 mg/kg/injection, schedule: Q04DX003 (ip), vehicle: Klucel (hydroxypropylcellulose) (HPC) 98 % of control

CC(=O)NC1=NN(C(C)=O)C(C)(c2ccccc2)S1=O (centres undefined)
inactive: dose: 50.0 mg/kg/injection, schedule: Q01DX005 (ip), vehicle: saline with Tween-80 103 % of control | dose: 100.0 mg/kg/injection, schedule: Q01DX005 (ip), vehicle: saline with Tween-80 107 % of control | dose: 200.0 mg/kg/injection, schedule: Q01DX005 (ip), vehicle: saline with Tween-80 101 % of control

Ic1ccc2c(c1)N(c1ccccc1)c1cc(N=c3ccc4nc5ccc(I)cc5n(-c5ccccc5)c-4c3)ccc1N2
inactive: [10] 96 % of control | [11] 89 % of control

C=C(CN(C)C)C(=O)c1ccc(Oc2ccccc2)cc1
inactive: dose: 0.93 mg/kg/injection, schedule: Q01DX005 (ip), vehicle: saline 104 % of control | dose: 1.87 mg/kg/injection, schedule: Q01DX005 (ip), vehicle: saline 100 % of control | dose: 3.75 mg/kg/injection, schedule: Q01DX005 (ip), vehicle: saline 100 % of control

Clc1ccc2c(NCCCCCCCCNc3c4ccccc4nc4cc(Cl)ccc34)c3ccccc3nc2c1
inactive: dose: 0.63 mg/kg/injection, schedule: Q01DX009 (ip), vehicle: other 112 % of control | dose: 1.25 mg/kg/injection, schedule: Q01DX009 (ip), vehicle: other 108 % of control | dose: 2.5 mg/kg/injection, schedule: Q01DX009 (ip), vehicle: other 110 % of control | dose: 3.75 mg/kg/injection, schedule: Q01DX009 (ip), vehicle: other 108 % of control | dose: 5.0 mg/kg/injection, schedule: Q01DX009 (ip), vehicle: other 112 % of control | dose: 7.5 mg/kg/injection, schedule: Q01DX009 (ip), vehicle: other 110 % of control | dose: 10.0 mg/kg/injection, schedule: Q01DX009 (ip), vehicle: other 110 % of control | dose: 15.0 mg/kg/injection, schedule: Q01DX009 (ip), vehicle: other 112 % of control | dose: 20.0 mg/kg/injection, schedule: Q01DX009 (ip), vehicle: other 120 % of control

COC(=O)c1cccc2c(=O)c(CCl)c(-c3ccccc3)sc12
inactive: dose: 100.0 mg/kg/injection, schedule: Q01DX001 (ip), vehicle: saline with Tween-80 93 % of control | dose: 200.0 mg/kg/injection, schedule: Q01DX001 (ip), vehicle: saline with Tween-80 91 % of control | dose: 400.0 mg/kg/injection, schedule: Q01DX001 (ip), vehicle: saline with Tween-80 91 % of control

CNC(=O)c1ccccc1C(O)c1ccc(C)cc1 (centres undefined)
inactive: [12] 105 % of control | [6] 99 % of control | [7] 99 % of control

O=C1NN(c2ccccc2)C(=O)/C1=C\c1ccccc1O
inactive: [9] 100 % of control and 96 % of control | dose: 43.75 mg/kg/injection, schedule: Q01DX005 (ip), vehicle: Klucel (hydroxypropylcellulose) (HPC) 104 % of control | dose: 43.75 mg/kg/injection, schedule: Q01DX009 (ip), vehicle: Klucel (hydroxypropylcellulose) (HPC) 95 % of control | [12] 94 % of control and 98 % of control | dose: 87.5 mg/kg/injection, schedule: Q01DX005 (ip), vehicle: Klucel (hydroxypropylcellulose) (HPC) 97 % of control | [6] 86 % of control and 97 % of control | dose: 175.0 mg/kg/injection, schedule: Q01DX005 (ip), vehicle: Klucel (hydroxypropylcellulose) (HPC) 98 % of control | dose: 175.0 mg/kg/injection, schedule: Q01DX009 (ip), vehicle: Klucel (hydroxypropylcellulose) (HPC) 102 % of control | [7] 86 % of control and 96 % of control | dose: 350.0 mg/kg/injection, schedule: Q01DX005 (ip), vehicle: Klucel (hydroxypropylcellulose) (HPC) 92 % of control | dose: 350.0 mg/kg/injection, schedule: Q01DX009 (ip), vehicle: Klucel (hydroxypropylcellulose) (HPC) 109 % of control | [8] 111 % of control

Cc1nn(C(=O)c2ccncc2)c(C)c1N=Nc1ccc(-c2ccc(N)cc2)cc1
inactive: dose: 50.0 mg/kg/injection, schedule: Q01DX009 (ip), vehicle: Klucel (hydroxypropylcellulose) (HPC) 99 % of control | [10] 90 % of control | [11] 90 % of control

CC(C)(C)c1cc(-c2cc(C(C)(C)C)nc(N)n2)nc(N)n1
inactive: dose: 60.0 mg/kg/injection, schedule: Q01DX005 (ip), vehicle: saline 87 % of control | dose: 120.0 mg/kg/injection, schedule: Q01DX005 (ip), vehicle: saline 105 % of control

CCCCCCCCCCCCCCC1(C(=O)OC)CO1 (centres undefined)
inactive: dose: 6.25 mg/kg/injection, schedule: Q01DX005 (ip), vehicle: Klucel (hydroxypropylcellulose) (HPC) 94 % of control | [4] 94 % of control | [1] 102 % of control

[O-]c1n[n+](-c2ccccc2)no1
inactive: dose: 3.13 mg/kg/injection, schedule: Q01DX009 (ip), vehicle: other 97 % of control | dose: 6.25 mg/kg/injection, schedule: Q01DX009 (ip), vehicle: other 96 % of control | dose: 12.5 mg/kg/injection, schedule: Q01DX009 (ip), vehicle: other 109 % of control | dose: 25.0 mg/kg/injection, schedule: Q01DX009 (ip), vehicle: other 101 % of control

C(CCCSC1=NCCN1)CCSC1=NCCN1
inactive: dose: 50.0 mg/kg/injection, schedule: Q01DX009 (ip), vehicle: saline 103 % of control | dose: 100.0 mg/kg/injection, schedule: Q01DX009 (ip), vehicle: saline 100 % of control

COc1cc2c(cc1OC(C)=O)C(=O)C(Br)CCC2 (centres undefined)
inactive: [6] 89 % of control | [7] 86 % of control

NN1C(=O)c2ccccc2C1=O
inactive: [12] 96 % of control | [6] 112 % of control | [7] 95 % of control | [8] 99 % of control
